The assay deals with CD2F1 mice, L1210 leukemia ip, survival T/C. The assay is described as follows: NCI In Vivo Anticancer Drug Screen. Data for tumor model L1210 Leukemia (intraperitoneal) in CD2F1 (CDF1) mice. To be noted: higher = longer survival. In outline:
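Transplantable tumor in mice; compound-treated vs vehicle-treated groups. Read-out = treated/control ratio of the measured endpoint.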

The mark [1] stands for this setting: endpoint: mean survival time, dose: 100.0 mg/kg/injection, schedule: Q01DX009 (ip), vehicle: saline with Tween-80.
The mark [2] stands for this setting: endpoint: mean survival time, dose: 200.0 mg/kg/injection, schedule: Q01DX009 (ip), vehicle: saline with Tween-80.
Where [3] appears, read: endpoint: mean survival time, dose: 400.0 mg/kg/injection, schedule: Q01DX009 (ip), vehicle: saline with Tween-80.
The mark [4] stands for this setting: endpoint: mean survival time, dose: 100.0 mg/kg/injection, schedule: Q04DX003 (ip), vehicle: saline.
[5] abbreviates: endpoint: mean survival time, dose: 200.0 mg/kg/injection, schedule: Q04DX003 (ip), vehicle: saline.
[6] abbreviates: endpoint: mean survival time, dose: 50.0 mg/kg/injection, schedule: Q01DX009 (ip), vehicle: saline with Tween-80.

The structures appear in SMILES notation. Where “and” joins values, the source holds several entries; their conditions need not be identical. Identical values can stand only once. Inconclusive results and toxic doses are left out.

Consider `Nc1ccc(Cn2ccc3c4c(N)nc(N)nc4ccc32)cc1`, for which the T/C (endpoint: mean survival time, dose: 1.25 mg/kg/injection, schedule: Q01DX005 (ip), vehicle: saline with Tween-80) was 101 % of control; the T/C (endpoint: mean survival time, dose: 1.25 mg/kg/injection, schedule: Q01DX009 (ip), vehicle: saline with Tween-80) was 101 % of control and 102 % of control and 108 % of control; the T/C (endpoint: mean survival time, dose: 2.5 mg/kg/injection, schedule: Q01DX005 (ip), vehicle: saline with Tween-80) was 111 % of control; the T/C (endpoint: mean survival time, dose: 5.0 mg/kg/injection, schedule: Q01DX005 (ip), vehicle: saline with Tween-80) was 110 % of control; the T/C (endpoint: mean survival time, dose: 10.0 mg/kg/injection, schedule: Q01DX005 (ip), vehicle: saline with Tween-80) is 123 % of control; the T/C (endpoint: mean survival time, dose: 20.0 mg/kg/injection, schedule: Q01DX005 (ip), vehicle: saline with Tween-80) was 106 % of control. Also, the T/C is 117 % of control (endpoint: mean survival time, dose: 30.0 mg/kg/injection, schedule: Q01DX005 (ip), vehicle: saline with Tween-80); 103 % of control and 108 % of control (endpoint: median survival time, dose: 1.25 mg/kg/injection, schedule: Q01DX009 (ip), vehicle: saline with Tween-80); 118 % of control and 103 % of control (endpoint: median survival time, dose: 2.5 mg/kg/injection, schedule: Q01DX009 (ip), vehicle: saline with Tween-80); 124 % of control and 103 % of control (endpoint: median survival time, dose: 5.0 mg/kg/injection, schedule: Q01DX009 (ip), vehicle: saline with Tween-80); 113 % of control (endpoint: median survival time, dose: 10.0 mg/kg/injection, schedule: Q01DX009 (ip), vehicle: saline with Tween-80); 152 % of control (endpoint: median survival time, dose: 20.0 mg/kg/injection, schedule: Q01DX009 (ip), vehicle: saline with Tween-80).
In the case of `CC(CCc1ccccc1)NC1=NCCO1` (stereo not given), the T/C is 102 % of control under setting [1]; 98 % of control (endpoint: mean survival time, dose: 100.0 mg/kg/injection, schedule: Q04DX003 (ip), vehicle: saline with Tween-80); 95 % of control under setting [2]; 103 % of control (endpoint: mean survival time, dose: 200.0 mg/kg/injection, schedule: Q04DX003 (ip), vehicle: saline with Tween-80); 98 % of control under setting [3]; 95 % of control (endpoint: mean survival time, dose: 400.0 mg/kg/injection, schedule: Q04DX003 (ip), vehicle: saline with Tween-80).
As to `COc1cc2c(cc1OC)C1c3cc(OC)c(OC)cc3CCN1CC2`, the T/C is, setting by setting: (endpoint: mean survival time, dose: 12.5 mg/kg/injection, schedule: Q01DX009 (ip), vehicle: other) 103 % of control; (endpoint: mean survival time, dose: 25.0 mg/kg/injection, schedule: Q01DX009 (ip), vehicle: other) 94 % of control.
Take `O.O.[Cl][Pt+2][Cl].[NH-]CC[NH-]`: the T/C (endpoint: median survival time, dose: 3.12 mg/kg/injection, schedule: Q04DX003 (ip), vehicle: distilled water + Tween-80) is 101 % of control; the T/C (endpoint: median survival time, dose: 6.25 mg/kg/injection, schedule: Q04DX003 (ip), vehicle: distilled water + Tween-80) is 102 % of control; the T/C (endpoint: median survival time, dose: 12.5 mg/kg/injection, schedule: Q04DX003 (ip), vehicle: distilled water + Tween-80) is 111 % of control; the T/C (endpoint: median survival time, dose: 25.0 mg/kg/injection, schedule: Q04DX003 (ip), vehicle: distilled water + Tween-80) was 108 % of control; the T/C (endpoint: median survival time, dose: 50.0 mg/kg/injection, schedule: Q04DX003 (ip), vehicle: distilled water + Tween-80) was 105 % of control.
For `O=C1O/C(=C\c2ccccc2)c2ccccc21`, the T/C reads like this: under setting [4], 104 % of control; under setting [5], 104 % of control; (endpoint: mean survival time, dose: 400.0 mg/kg/injection, schedule: Q04DX003 (ip), vehicle: saline) 98 % of control.
In the case of `CN(C)C(=S)Oc1ccc2ccc3ccccc3c2c1`, the T/C was 96 % of control (endpoint: mean survival time, dose: 100.0 mg/kg/injection, schedule: Q04DX002 (ip), vehicle: saline with Tween-80); 89 % of control (endpoint: mean survival time, dose: 200.0 mg/kg/injection, schedule: Q04DX002 (ip), vehicle: saline with Tween-80); 104 % of control (endpoint: mean survival time, dose: 400.0 mg/kg/injection, schedule: Q04DX002 (ip), vehicle: saline with Tween-80).
`CC(C)(C(=O)O)C(=O)O`: the T/C (endpoint: mean survival time, dose: 50.0 mg/kg/injection, schedule: Q04DX003 (ip), vehicle: saline) is 97 % of control; the T/C under setting [4] was 94 % of control; the T/C under setting [5] was 100 % of control.
Regarding `CC(=O)OCc1ncccc1OC(C)=O`, the T/C by setting is: (endpoint: mean survival time, dose: 25.0 mg/kg/injection, schedule: Q01DX009 (ip), vehicle: suspension in saline) 102 % of control; (endpoint: mean survival time, dose: 50.0 mg/kg/injection, schedule: Q01DX009 (ip), vehicle: suspension in saline) 98 % of control; (endpoint: mean survival time, dose: 100.0 mg/kg/injection, schedule: Q01DX009 (ip), vehicle: suspension in saline) 102 % of control; (endpoint: mean survival time, dose: 200.0 mg/kg/injection, schedule: Q01DX009 (ip), vehicle: suspension in saline) 93 % of control.
`CC(=O)C(C)C(C)=O`: the T/C is 105 % of control under setting [1], 107 % of control under setting [2] and 102 % of control under setting [3].
Turning to `COC(=O)Nc1ccc(Cc2ccc(NC(=O)OC)cc2)cc1`, the T/C is, setting by setting: under setting [6], 121 % of control and 104 % of control; under setting [1], 120 % of control and 110 % of control; under setting [3], 87 % of control.
For the compound `CCCSc1ccc2nc(NC(=O)OC)[nH]c2c1`, the T/C under setting [6] was 93 % of control, the T/C under setting [1] is 107 % of control and the T/C under setting [2] is 118 % of control.
In the case of `C[N+]12CCC34c5ccccc5NC3C3C(CC(=O)[O-])OCC=C(C1)C3CC42` (stereo not given), the T/C is 96 % of control (endpoint: mean survival time, dose: 75.0 mg/kg/injection, schedule: Q01DX001 (ip), vehicle: other) and 98 % of control (endpoint: mean survival time, dose: 150.0 mg/kg/injection, schedule: Q01DX001 (ip), vehicle: other).
Consider `NNC(=O)c1cc(Cl)cc(C(=O)NN)n1`, for which the T/C under setting [6] was 97 % of control.

The record behind these values is PubChem BioAssay AID256 (DTP/NCI, 2004).
